Experiment [1] deals with T1, human GR (Homo sapiens, UniProt P04150).
T1 sequence (P04150 1-777): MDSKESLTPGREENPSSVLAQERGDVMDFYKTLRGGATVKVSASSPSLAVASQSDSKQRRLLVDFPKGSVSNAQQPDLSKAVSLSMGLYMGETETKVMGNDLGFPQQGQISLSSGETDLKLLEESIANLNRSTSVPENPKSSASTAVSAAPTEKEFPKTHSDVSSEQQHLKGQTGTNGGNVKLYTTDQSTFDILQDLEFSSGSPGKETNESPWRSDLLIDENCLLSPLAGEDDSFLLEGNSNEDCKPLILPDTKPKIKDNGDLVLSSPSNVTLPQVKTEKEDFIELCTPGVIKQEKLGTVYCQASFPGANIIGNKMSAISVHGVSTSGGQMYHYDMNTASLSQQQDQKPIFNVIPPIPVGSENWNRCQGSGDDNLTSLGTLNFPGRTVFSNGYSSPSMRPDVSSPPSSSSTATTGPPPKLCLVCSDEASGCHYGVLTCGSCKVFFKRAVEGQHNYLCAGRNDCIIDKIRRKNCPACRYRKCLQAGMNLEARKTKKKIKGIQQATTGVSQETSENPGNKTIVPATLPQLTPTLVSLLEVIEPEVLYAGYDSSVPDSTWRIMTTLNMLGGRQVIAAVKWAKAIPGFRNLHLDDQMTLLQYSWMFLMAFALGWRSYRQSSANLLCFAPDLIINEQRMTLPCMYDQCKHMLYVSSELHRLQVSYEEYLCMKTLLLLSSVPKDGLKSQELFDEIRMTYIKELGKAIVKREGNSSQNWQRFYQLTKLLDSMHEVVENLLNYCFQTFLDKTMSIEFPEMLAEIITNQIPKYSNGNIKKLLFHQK
As to the kind of experiment: Trans-Activation Modulation of Glucocorticoid Receptor (GRAMMER), MMTV-LUC reporter, agonist mode. The conditions noted are these: for Emax: A549, A549 cells, maximum activity, read-out: Transactivation A549 Cells GRAMMER Emax; for EC50: A549 cells, inflection point, read-out: Transactivation A549 Cells GRAMMER IP. It counts as cell-based. Details: endogenous in cells. An outline of the steps:
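Readout is luciferase from a modified MMTV LTR promoter after 24 h compound exposure alongside 10 nM dexamethasone (100% activity reference), DMSO ≤1%.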

Experiment [2] deals with T1, human GR. Description: Transrepression Assay (GITAR), TNFα-β-lactamase reporter in U937 cells. It counts as cell-based. Details: U937 cells contain an endogenous glucocorticoid receptor (GR); endogenous in cells; host or cells: U937 cells stably transfected with the TNF-alpha promoter/beta-lactamase reporter. The following applies: for GITAR > GRAMM % SEP: GITAR Emax minus GRAMMER Emax; for EC50: U937 cells, inflection point, read-out: Transrepression U937 Cells GITAR IP. In outline:
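U937 cells with endogenous GR, stably carrying TNFα promoter–β-lactamase, preincubated with compound 30–45 min at 37° C, then stimulated with PMA 5 ng/ml and LPS 100 ng/ml (final) ~18 hr. Read-out via CCF2-AM loading; repression by 100 nM dexamethasone set as 100%.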

Where [3] appears, read: U-937, U937 cells, maximum activity, read-out: Transrepression U937 Cells GITAR Emax.
[4] abbreviates: U-937, activity repressed by 100 nM dexamethasone alone set as 100%, read-out: maximal activity in the transrepression (GITAR) assay.

For `COc1ccccc1CCN(C[C@H]1CCC2=Cc3c(cnn3-c3ccc(F)cc3)C[C@@]21C)S(=O)(=O)Cc1cccc(C(F)(F)F)c1` [Example 119, N-{[(4αR,5S)-1-(4-fluorophenyl)-4α-methyl-1,4,4α,5,6,7-hexahydrocyclopenta[f]indazol-5-yl]methyl}-N-[2-(2-methoxyphenyl)ethyl]-1-[3-(trifluoromethyl)phenyl]methanesulfonamide], the Emax is 6.6% on human GR [1], 15.9% at human GR [2] (setting [3]) and above 5% at human GR [2] (setting [4]). Besides, the EC50 on human GR [1] amounted to 202 nM; on human GR [2], 605 nM. The “GITAR > GRAMM % SEP” value at human GR [2] stood at 9.3%.

With `COc1ccccc1CCN(C[C@H]1CCC2=Cc3c(cnn3-c3ccc(F)cc3)C[C@@]21C)S(=O)(=O)CC(F)(F)F` [Example 120, 2,2,2-trifluoro-N-{[(4αR,5S)-1-(4-fluorophenyl)-4α-methyl-1,4,4α,5,6,7-hexahydrocyclopenta[f]indazol-5-yl]methyl}-N-[2-(2-methoxyphenyl)ethyl]ethanesulfonamide], the Emax at human GR [1] was 73.2%; at human GR [2] (setting [3]) it was 91.5%; on human GR [2] (setting [4]), above 5%. Besides, the EC50 on human GR [1] is 110 nM; at human GR [2] it was 77.8 nM. For the same molecule, at human GR [2], the “GITAR > GRAMM % SEP” value amounted to 18.2%.

As for `C[C@]12Cc3cnn(-c4ccc(F)cc4)c3C=C1CC[C@@H]2CN(CCc1ccccc1F)S(=O)(=O)CCN1C(=O)c2ccccc2C1=O` [Example 121, 2-(1,3-dioxo-1,3-dihydro-2H-isoindol-2-yl)-N-[2-(2-fluorophenyl)ethyl]-N-{[(4αR,5S)-1-(4-fluorophenyl)-4α-methyl-1,4,4α,5,6,7-hexahydrocyclopenta[f]indazol-5-yl]methyl}ethanesulfonamide], the Emax is 15.9% at human GR [1], 33.8% at human GR [2] (setting [3]) and above 5% on human GR [2] (setting [4]). For the same molecule, the EC50 amounted to 242 nM on human GR [1] and 156 nM on human GR [2]. Besides, the “GITAR > GRAMM % SEP” value at human GR [2] is given as 17.9%.

Turning to `C[C@]12Cc3cnn(-c4ccc(F)cc4)c3C=C1CC[C@@H]2CN(CCc1ccccc1O)S(=O)(=O)Cc1cccc(C(F)(F)F)c1` [Example 122, N-{[(4αR,5S)-1-(4-fluorophenyl)-4α-methyl-1,4,4α,5,6,7-hexahydrocyclopenta[f]indazol-5-yl]methyl}-N-[2-(2-hydroxyphenyl)ethyl]-1-[3-(trifluoromethyl)phenyl]methanesulfonamide], the Emax was 8.9% on human GR [1], 39.7% on human GR [2] (setting [3]) and above 5% at human GR [2] (setting [4]). Also, the EC50 stood at 502 nM at human GR [1] and 417 nM on human GR [2]. In addition, the “GITAR > GRAMM % SEP” value on human GR [2] stood at 30.8%.

`Cc1noc(C)c1S(=O)(=O)N(CCc1ccccc1O)C[C@H]1CCC2=Cc3c(cnn3-c3ccc(F)cc3)C[C@@]21C` [Example 123, N-{[(4αR,5S)-1-(4-fluorophenyl)-4α-methyl-1,4,4α,5,6,7-hexahydrocyclopenta[f]indazol-5-yl]methyl}-N-[2-(2-hydroxyphenyl)ethyl]-3,5-dimethylisoxazole-4-sulfonamide]: the figures for the Emax at human GR [1], on human GR [2] (setting [3]) and at human GR [2] (setting [4]) were 65.4%, 90.8% and above 5%, respectively. Besides, the figures for the EC50 at human GR [1] and on human GR [2] were 195 nM and 128 nM, respectively. Besides, on human GR [2], the “GITAR > GRAMM % SEP” value is on record as 25.4%.

As to `C[C@]12Cc3cnn(-c4ccc(F)cc4)c3C=C1CC[C@@H]2CN(CCc1ccccc1F)S(=O)(=O)Cc1cccnc1` [Example 124, N-[2-(2-fluorophenyl)ethyl]-N-{[(4αR,5S)-1-(4-fluorophenyl)-4α-methyl-1,4,4α,5,6,7-hexahydrocyclopenta[f]indazol-5-yl]methyl}-1-pyridin-3-ylmethanesulfonamide], the Emax on human GR [1] is 99.2%; at human GR [2] (setting [3]) it was 100%; on human GR [2] (setting [4]) it was above 5%. The EC50 is 218 nM on human GR [1] and 251 nM at human GR [2]. For the same molecule, the “GITAR > GRAMM % SEP” value on human GR [2] turned out to be 1.3%.

For the molecule `COc1ccccc1CCN(C[C@H]1CCC2=Cc3c(cnn3-c3ccc(F)cc3)C[C@@]21C)S(=O)(=O)Cc1cccnc1` [Example 125, N-{[(4αR,5S)-1-(4-fluorophenyl)-4α-methyl-1,4,4α,5,6,7-hexahydrocyclopenta[f]indazol-5-yl]methyl}-N-[2-(2-methoxyphenyl)ethyl]-1-pyridin-3-ylmethanesulfonamide], the values for the Emax at human GR [1], at human GR [2] (setting [3]) and at human GR [2] (setting [4]) were 21.2%, 55.3% and above 5%, respectively. For the same molecule, the EC50 at human GR [1] came out at 508 nM; on human GR [2], 575 nM. The “GITAR > GRAMM % SEP” value on human GR [2] is given as 34.1%.

As for `COc1cccc(CCN(C[C@H]2CCC3=Cc4c(cnn4-c4ccc(F)cc4)C[C@@]32C)S(=O)(=O)CC(F)(F)F)c1` [Example 126, 2,2,2-trifluoro-N-{[(4αR,5S)-1-(4-fluorophenyl)-4α-methyl-1,4,4α,5,6,7-hexahydrocyclopenta[f]indazol-5-yl]methyl}-N-[2-(3-methoxyphenyl)ethyl]ethanesulfonamide], the Emax at human GR [1] was 78.2%; on human GR [2] (setting [3]) it was 90%; on human GR [2] (setting [4]) it was above 5%. In addition, the EC50 was 227 nM at human GR [1] and 233 nM at human GR [2]. For the same molecule, the “GITAR > GRAMM % SEP” value on human GR [2] came to 11.7%.

`COc1ccc(CCN(C[C@H]2CCC3=Cc4c(cnn4-c4ccc(F)cc4)C[C@@]32C)S(=O)(=O)CC(F)(F)F)cc1` [Example 127, 2,2,2-trifluoro-N-{[(4αR,5S)-1-(4-fluorophenyl)-4α-methyl-1,4,4α,5,6,7-hexahydrocyclopenta[f]indazol-5-yl]methyl}-N-[2-(4-methoxyphenyl)ethyl]ethanesulfonamide]: the Emax on human GR [1] is 67.9%; at human GR [2] (setting [3]), 83%; at human GR [2] (setting [4]), above 5%. Further, the EC50 on human GR [1] was found to be 232 nM; on human GR [2] it was 202 nM. The “GITAR > GRAMM % SEP” value on human GR [2] was 15.1%.

Regarding `C[C@]12Cc3cnn(-c4ccc(F)cc4)c3C=C1CC[C@@H]2CN(CCc1ccccn1)S(=O)(=O)CC(F)(F)F` [Example 128, 2,2,2-trifluoro-N-{[(4αR,5S)-1-(4-fluorophenyl)-4α-methyl-1,4,4α,5,6,7-hexahydrocyclopenta[f]indazol-5-yl]methyl}-N-(2-pyridin-2-ylethyl)ethanesulfonamide], the Emax on human GR [1] was 69.1%; on human GR [2] (setting [3]), 88.4%; on human GR [2] (setting [4]), above 5%. In addition, the EC50 worked out at 252 nM at human GR [1] and 324 nM at human GR [2]. Besides, the “GITAR > GRAMM % SEP” value at human GR [2] is given as 19.3%.

As for `C[C@]12Cc3cnn(-c4ccc(F)cc4)c3C=C1CC[C@@H]2CN(CCc1ccncc1)S(=O)(=O)CC(F)(F)F` [Example 129, 2,2,2-trifluoro-N-{[(4αR,5S)-1-(4-fluorophenyl)-4α-methyl-1,4,4α,5,6,7-hexahydrocyclopenta[f]indazol-5-yl]methyl}-N-(2-pyridin-4-ylethyl)ethanesulfonamide], the Emax on human GR [1] was 67.2%; on human GR [2] (setting [3]), 79.1%; at human GR [2] (setting [4]), above 5%. Besides, the EC50 came out at 948 nM on human GR [1] and 623 nM on human GR [2]. Besides, on human GR [2], the “GITAR > GRAMM % SEP” value is recorded as 11.9%.

For `C[C@]12Cc3cnn(-c4ccc(F)cc4)c3C=C1CC[C@@H]2CN(CCc1ccc(O)cc1)S(=O)(=O)CC(F)(F)F` [Example 130, 2,2,2-trifluoro-N-{[(4αR,5S)-1-(4-fluorophenyl)-4α-methyl-1,4,4α,5,6,7-hexahydrocyclopenta[f]indazol-5-yl]methyl}-N-[2-(4-hydroxyphenyl)ethyl]ethanesulfonamide], the Emax is 66.1% at human GR [1], 79.7% on human GR [2] (setting [3]) and above 5% on human GR [2] (setting [4]). The EC50 at human GR [1] was 369 nM; on human GR [2], 229 nM. The “GITAR > GRAMM % SEP” value on human GR [2] came out at 13.6%.

With `C[C@]12Cc3cnn(-c4ccc(F)cc4)c3C=C1CC[C@@H]2CN(CCc1ccccc1O)S(=O)(=O)Cc1cccnc1` [Example 131, N-{[(4αR,5S)-1-(4-fluorophenyl)-4α-methyl-1,4,4α,5,6,7-hexahydrocyclopenta[f]indazol-5-yl]methyl}-N-[2-(2-hydroxyphenyl)ethyl]-1-pyridin-3-ylmethanesulfonamide], the Emax was 37.4% on human GR [1], 60.3% at human GR [2] (setting [3]) and above 5% at human GR [2] (setting [4]). Besides, the EC50 turned out to be 571 nM on human GR [1] and 437 nM on human GR [2]. The “GITAR > GRAMM % SEP” value on human GR [2] came to 22.9%.

(Values after patent US8299048B2, “Hexahydrocyclopentyl[f]indazole sulfonamides and derivatives thereof as selective glucocorticoid receptor modulators” (Merck Sharp & Dohme Corp., priority 2008, dated 2012).)
